Like-named read-outs stand apart in the source and are kept apart here.
Assays:
[1] = tested on: IR-induced WI-38 SCs; experiment: Apoptosis analysis (Annexin V/PI flow cytometry); assay type: cell-based, human; settings: 1.25 μM ABT263, 24 h, with or without 20 μM Q-VD-OPh
Description: Cells were seeded into a 6-well plate at 4-6×10^5 cells/well. […] The cells were harvested 24 h after treatment and resuspended in 1× annexin V binding buffer (BD Biosciences) at 1×10^6 cells/ml. An aliquot (100 μl) of the cell suspension was incubated with 5 μl of Annexin V-FITC (BD Biosciences) or PI (1 mg/ml) for 15 min at room temperature in the dark. After addition of 400 μl of 1× binding buffer, 10,000 cells per sample were analyzed by a BD LSR H flow cytometer (BD Biosciences).

[2] = tested on: human renal epithelial cells (REC); experiment: Cell viability, IR-SC vs NC, renal epithelial cells; assay type: cell-based; settings: increasing concentrations, 72 h
Description: (§1) Human WI-38 fibroblasts (WI38 cells, #CCL-75™), human IMR-90 fibroblasts (IMR90 cells, #CCL-186™), human renal epithelial cells (REC cells, #PCS-400-012™) were obtained from ACTT (Manassas, Va., USA). Mouse embryonic fibroblasts (MEF) were isolated from mouse embryos as described^1. All cells were cultured in a complete medium (CM) (Dulbecco's Modified Eagle Medium supplemented with 10% fetal bovine serum [FBS], 100 U/ml penicillin, and 100 μg/ml streptomycin [all from Atlanta Biologicals, Norcross, Ga., and USA]) in a humidified incubator at 37° C. and 5% CO2. Low passages of WI-38 cells (<25), IMR-90 (<25), REC cells (<25) and MEF (<3) were used as non-senescent controls or for induction of senescence to avoid replicative senescence. To induce replicative senescence, WI-38 cells were subcultivated until cell division ceased after about 38 passages or 60 population doublings (FIG. 5)^2. […]
(§2) Flow cytometry: Non-senescent and senescent cells were seeded into wells of 24- or 48-well at about 70% of confluence. […] Viable cells (PI^− cells) were numerated by flow cytometry at a constant flow rate and calculated as a percentage of control cells treated with vehicle using the formula: percentage of control=(Ndrug/NC)×100, where Ndrug and NC represent the absolute number of PI^− viable cells of drug-treated and vehicle-treated cells, respectively.

[3] = tested on: human IMR-90 fibroblasts; experiment: Cell viability, IR-SC vs NC, IMR-90 fibroblasts; assay type: cell-based; settings: increasing concentrations, 72 h
Description: as §1, §2

[4] = tested on: non-senescent WI-38 cells (NC); experiment: Cell viability (PI flow cytometry), LD50 in non-senescent WI-38 cells; assay type: cell-based, human; settings: for CC50: WI-38 fibroblasts, non-senescent, LD50 by Probit Analysis, read-out: LD50 (μM) for non-senescent cells (NC)
Description: Mouse embryonic fibroblasts (MEF) were isolated from mouse embryos as described^1. All cells were cultured in a complete medium (CM) (Dulbecco's Modified Eagle Medium supplemented with 10% fetal bovine serum [FBS], 100 U/ml penicillin, and 100 μg/ml streptomycin [all from Atlanta Biologicals, Norcross, Ga., and USA]) in a humidified incubator at 37° C. and 5% CO2. Low passages of WI-38 cells (<25), IMR-90 (<25), REC cells (<25) and MEF (<3) were used as non-senescent controls or for induction of senescence to avoid replicative senescence. […] To induce senescence by expression of oncogenic Ras (Ras^V12), WI-38 cells were infected with the retroviruses pBabe-H-Ras or pBabe-puro (control) (Addgene, Cambridge, Mass., UAS)^2, 3. […] Senescent cells were maintained in culture for a few days, changing the culture medium every 3 days until use. For in vitro cell culture experiments, we usually repeated the experiments for at least three times to ensure the reproducibility of the data. In addition, the repeats of the experiments for three times will allow us to obtain 3 independent observations for statistical analysis.
Flow cytometry: Non-senescent and senescent cells were seeded into wells of 24- or 48-well at about 70% of confluence. […] Both quiescent non-senescent cells and permanently growth arrested senescent cells were treated with vehicle (0.1% DMSO or PBS) or increasing concentrations of the compounds listed in Table 1 for various durations. […] After incubated with propidium iodide (PI 100 ng/ml) in PBS at room temperature for 1 min, cells were centrifuged at 1200 rpm for 6 min and then resuspended in PBS with 2% of FBS for analysis by a BD LSR II flow cytometer (BD Biosciences, San Jose, Calif., USA). Viable cells (PI^− cells) were numerated by flow cytometry at a constant flow rate and calculated as a percentage of control cells treated with vehicle using the formula: percentage of control=(Ndrug/NC)×100, where Ndrug and NC represent the absolute number of PI^− viable cells of drug-treated and vehicle-treated cells, respectively.
MTT (3-[4,5-dimethylthiazol-2-yl]-2,5 diphenyl tetrazolium bromide) assay: Cells were harvested, washed and resuspended in CM and added to wells of 24- or 48-well plates as described above. […] After 4 h at 37° C., the formazan was solubilized by lysing the cells with 300 μl of DMSO. Absorbance of formazan was measured at 595 nm using a Microplate Reader (BioTek, Winooski, Vt., USA). Cell viability was calculated in the method as previously described^4.
Trypan blue exclusion assay: Cells were harvested, washed and resuspended in CM and added to wells of a 6-well plate as described above. […] Living cells stained negative for trypan blue and were counted under light microscopy.
Briefly, Probit (set as y) was determined by looking up their correspondence to the % responded in Finney's table. The log of the compound concentrations was used as x. By fitting a line of regression, we produce the formula y=ax+b.

[5] = tested on: bone marrow HSCs; experiment: Single HSC culture clonogenic activity in vitro; assay type: cell-based, mouse; settings: 1.25 μM ABT263
Description: Freshly prepared medium was added every 3 days, Two weeks later, the numbers of cells produced by each HSC were counted.

Structure (SMILES): CC1(C)CCC(c2ccc(Cl)cc2)=C(CN2CCN(c3ccc(C(=O)NS(=O)(=O)c4ccc(N[C@H](CCN5CCOCC5)CSc5ccccc5)c(S(=O)(=O)C(F)(F)F)c4)cc3)CC2)C1 [ABT263, navitoclax]
- apoptosis induction [1]: selectively killed SCs by inducing apoptosis, which was abrogated by QVD
- viable cells, IR-SC vs NC [2]: kills IR-induced senescent cells (IR-SC) but not non-senescent cells (NC)
- viable cells, IR-SC vs NC [3]: kills IR-induced senescent cells (IR-SC) but not non-senescent cells (NC)
- CC50 ([4]; Homo sapiens): 12.6 µM
- LD50 ([4]; Table 2, NC WI38 cells): 12.60 µM
- CC50 [4]: 12.60 µM
- viable cells by MTT assay and trypan blue exclusion test ([4]; non-senescent WI-38, increasing concentrations, 72 h): is not cytotoxic to non-senescent WI-38 cells
- clonogenicity of BM HSCs in vitro ([5]; HSCs from control unirradiated mice): had little effect on the clonogenicity of BM HSCs from control unirradiated mice
- clonogenicity of BM HSCs in vitro ([5]; HSCs from irradiated mice): markedly reduced the clonogenicity of BM HSCs from irradiated mice

Reference: patent publication US11331328B2, “Compositions and methods for inhibiting antiapoptotic Bcl-2 proteins as anti-aging agents” (priority 2014, dated 2022)
